Test [1] concerns the target T1, Sepiapterin reductase (Homo sapiens, UniProt P35270). The experiment in a line: LC/MS assay: To screen for SPR inhibition, a biochemical assay based on LC/MS (and chromogenic) read-out has been developed. The LC/MS assay monitors the product formation (L-biopterin) and the chromogenic assay measures OD at 420 nm.N-methoxyacetyl serotonin was used as a reference compound (positive control). […] (2) Add 40 uL enzyme/assay buffer.

Test [2] addresses T1, Sepiapterin reductase. Put plainly: The LC/MS assay monitors the product formation (L-biopterin) and the chromogenic assay measures OD at 420 nm.N-methoxyacetyl serotonin was used as a reference compound (positive control). […] (2) Add 40 uL enzyme/assay buffer.

By IC50 is commonly meant the concentration that gives 50% inhibition.

T1 sequence (P35270 whole entry): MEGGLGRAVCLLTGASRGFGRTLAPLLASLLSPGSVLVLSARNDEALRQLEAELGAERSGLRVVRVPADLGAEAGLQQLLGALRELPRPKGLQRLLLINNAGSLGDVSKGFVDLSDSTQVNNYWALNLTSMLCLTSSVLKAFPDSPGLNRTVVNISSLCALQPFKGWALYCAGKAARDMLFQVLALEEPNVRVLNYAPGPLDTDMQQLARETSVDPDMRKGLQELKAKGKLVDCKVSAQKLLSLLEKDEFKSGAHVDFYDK

As for `COCC(=O)NCCc1c[nH]c2ccc(NS(C)(=O)=O)cc12`, the half-inhibitory concentration (IC50) in test [1] was 1000 nM; in test [2] it was 1100 nM.

The values are drawn from ChEMBL document CHEMBL3886312, “Sepiapterin reductase inhibitors for the treatment of pain” (2015).
